Reference: patent US8492537B2, “Nucleosides for suppressing or reducing the development of resistance in cytostatic therapy” (RESprotect GmbH, priority 2006, dated 2013)

Structure (SMILES)	melting point
CC(C)[C@H](NC(=O)OC(C)(C)C)C(=O)N[C@H](C(=O)O[C@H]1C[C@H](n2cc(/C=C/Br)c(=O)[nH]c2=O)O[C@@H]1CCl)C(C)C [2.2.2.7, 3′-O—(N-t-butyloxycarbonyl-L-valyl-L-valinoyl)-5′-chloro-2′,5′-dideoxy-5-(E)-bromovinyluridine]	114 to 116 °C
[N-]=[N+]=NC[C@H]1O[C@@H](n2cc(/C=C/Br)c(=O)[nH]c2=O)C[C@@H]1Cl [3.5.3, 5′-azido-3′-chloro-2′,3′,5′-trideoxy-5-(E)-bromovinyluridine]	58 to 60 °C
N#CC[C@H]1O[C@@H](n2cc(/C=C/Br)c(=O)[nH]c2=O)C[C@@H]1O [compound 10, 5′-cyano-2′,5′-dideoxy-5-(E)-bromovinyluridine]	177 °C (dec.)
CC(C)[C@H](NC(=O)OC(C)(C)C)C(=O)N[C@H](C(=O)OC[C@H]1O[C@@H](n2cc(/C=C/Br)c(=O)[nH]c2=O)C[C@@H]1N=[N+]=[N-])C(C)C [1.2.2.9, 3′-azido-5′-O—(N-t-butyloxycarbonyl-L-valyl-L-valinoyl)-2′,3′-dideoxy-5-(E)-bromovinyluridine]	95 to 97 °C
CO[C@H]1C[C@H](n2cc(/C=C/Br)c(=O)[nH]c2=O)O[C@@H]1CF [2.1.4, 3′-O-methyl-5′-fluoro-2′,5′-dideoxy-5-(E)-bromovinyluridine]	177 °C
CC(=O)N[C@H]1C[C@H](n2cc(/C=C/Br)c(=O)[nH]c2=O)O[C@@H]1CBr [1.4.2, 3′-acetamido-5′-bromo-2′,3′,5′-trideoxy-5-(E)-bromovinyluridine]	178 to 180 °C
CC(=O)O[C@H]1C[C@H](n2cc(/C=C/Br)c(=O)[nH]c2=O)O[C@@H]1C(O)F (stereo partly shown) [2.2.1, 3′-O-acetyl-5′-fluoro-2′-deoxy-5-(E)-bromovinyluridine]	81 °C
CC(C)[C@H](NC(=O)OC(C)(C)C)C(=O)N[C@H](C(=O)OC[C@H]1O[C@@H](n2cc(/C=C/Br)c(=O)[nH]c2=O)C[C@@H]1Cl)C(C)C [1.2.2.7, 5′-O—(N-t-butyloxycarbonyl-L-valyl-L-valinoyl)-3′-chloro-2′,3′-dideoxy-5-(E)-bromovinyluridine]	102 to 103 °C
CO[C@H]1C[C@H](n2cc(/C=C/Br)c(=O)n(C)c2=O)O[C@@H]1CF [2.1.3, 3′-O-methyl-5′-fluoro-2′,5′-dideoxy-3-methyl-5-(E)-bromovinyluridine]	95 °C
CCCCOC(=O)N[C@H](C(=O)O[C@H]1C[C@H](n2cc(/C=C/Br)c(=O)[nH]c2=O)O[C@@H]1CCl)C(C)C [2.2.2.5, 3′-O—(N-4-butyloxycarbonyl-L-valinoyl)-5′-chloro-2′,5′-dideoxy-5-(E)-bromovinyluridine]	87 to 88 °C
CC(C)[C@H](NC(=O)OC(C)(C)C)C(=O)OC[C@H]1O[C@@H](n2cc(/C=C/Br)c(=O)[nH]c2=O)C[C@@H]1Cl [1.2.2.5, 5′-O—(N-t-butyloxycarbonyl-L-valinoyl)-3′-chloro-2′,3′-dideoxy-5-(E)-bromovinyluridine]	75 to 76 °C
CO[C@H]1C[C@H](n2cc(/C=C/Br)c(=O)[nH]c2=O)O[C@@H]1CCl [2.1.2, 3′-O-methyl-5′-chloro-2′,5′-dideoxy-5-(E)-bromovinyluridine]	145 °C
CC(C)[C@H](NC(=O)OC(C)(C)C)C(=O)N[C@H](C(=O)O[C@H]1C[C@H](n2cc(/C=C/Br)c(=O)[nH]c2=O)O[C@@H]1CN=[N+]=[N-])C(C)C [2.2.2.9, 5′-azido-3′-O—(N-t-butyloxycarbonyl-L-valyl-L-valinoyl)-2′,5′-dideoxy-5-(E)-bromovinyluridine]	133 to 135 °C
[N-]=[N+]=N[C@H]1C[C@H](n2cc(/C=C/Br)c(=O)[nH]c2=O)O[C@@H]1CCl [3.5.4, 3′-azido-5′-chloro-2′,3′,5′-trideoxy-5-(E)-bromovinyluridine]	124 to 125 °C
O=c1[nH]c(=O)n([C@H]2C[C@H](O)[C@@H](CF)O2)cc1/C=C/Br [2.1.1, 2′,5′-dideoxy-5′-fluoro-5-(E)-bromovinyluridine]	208 °C

More lines, now with the values ahead:

melting point	Structure (SMILES)
149 °C	O=c1[nH]c(=O)n([C@H]2C[C@H](Cl)[C@@H](CBr)O2)cc1/C=C/Br [3.5, 3′-chloro-5′-bromo-2′,3′,5′-trideoxy-5-(E)-bromovinyluridine]
96 °C	CC(=O)O[C@H]1C[C@H](n2cc(/C=C/Br)c(=O)[nH]c2=O)O[C@@H]1CC#N [10.3, 3′-O-acetyl-5′-cyano-2′,5′-dideoxy-5-(E)-bromovinyluridine]
> 150 °C	O=c1[nH]c(=O)n([C@H]2C=C[C@@H](CBr)O2)cc1/C=C/Br [4.2, 2′,3′-didehydro-2′,3′,5′-trideoxy-5′-bromo-5-(E)-bromovinyluridine]
203 °C	O=c1[nH]c(=O)n([C@H]2C[C@H](F)[C@@H](CCl)O2)cc1/C=C/Br [3.2, 3′-fluoro-5′-chloro-2′,3′,5′-trideoxy-5-(E)-bromovinyluridine]
223 °C	O=c1[nH]c(=O)n([C@@H]2O[C@H](CBr)[C@@H](O)[C@H]2F)cc1/C=C/Br [5.2, 2′-fluoro-5′-bromo-2′,5′-dideoxy-5-(E)-bromovinyluridine]
177 to 180 °C	O=c1[nH]c(=O)n([C@H]2C[C@H](F)[C@@H](CF)O2)cc1/C=C/Br [3.1, 3′,5′-difluoro-2′,3′,5′-trideoxy-5-(E)-bromovinyluridine]
174 °C (dec.)	C[C@H]1O[C@@H](n2cc(/C=C/Br)c(=O)[nH]c2=O)C[C@@H]1O [8.1, 2′,5′-dideoxy-5-(E)-bromovinyluridine]
184 °C	O=c1[nH]c(=O)n([C@H]2C[C@H](Cl)[C@@H](CCl)O2)cc1/C=C/Br [3.3, 3′,5′-dichloro-2′,3′,5′-trideoxy-5-(E)-bromovinyluridine]
134 °C	C[C@H]1O[C@@H](n2cc(/C=C/Br)c(=O)[nH]c2=O)C[C@@H]1Cl [8.2, 3′-chloro-2′,3′,5′-trideoxy-5-(E)-bromovinyluridine]
182 °C	O=c1[nH]c(=O)n([C@@H]2O[C@H](CO)[C@@H](O)[C@H]2F)cc1/C=C/Br [5.1, 2′-fluoro-2′-deoxy-5-(E)-bromovinyluridine]
> 250 °C (dec.)	O=c1[nH]c(=O)n([C@H]2C=C[C@@H](CO)O2)cc1/C=C/Br [4.1, 2′,3′-didehydro-2′,3′-dideoxy-5-(E)-bromovinyluridine]
201 °C	O=c1[nH]c(=O)n([C@@H]2O[C@H](CBr)[C@@H](O)[C@H]2O)cc1/C=C/Br [2.3, 5′-bromo-5′-deoxy-5-(E)-bromovinyluridine]
153 °C	O=c1[nH]c(=O)n([C@H]2C[C@H](Br)[C@@H](CBr)O2)cc1/C=C/Br [3.6, 3′,5′-dibromo-2′,3′,5′-trideoxy-5-(E)-bromovinyluridine]
